Measured values reported in patent US20140105996A1, “Avian-Based Treatment” (Cocky Smart Pty Ltd, priority 2011, published 2014).

System: A2058 melanoma cells
Assay: Growth of A2058 melanoma cells with EP-2 or TPP (Examples 1-3)
Format: cell-based
Description: Saturated solutions of bird extract EP-2, 10 ng/mL triphenyl phosphate (TPP) or control media were used to saturate growth medium containing melanoma cells (A2058 Melanoma cells) at a concentration of approximately 1.2×10^4 cells/well or 1.0×10^4 cells/well. All results are average cell counts for experiments performed in triplicate (see FIG. 1). TPP was investigated on the basis of the findings in Zurhaar WO2008/019452 “Insect Repellent” that the insect repellent factor in an avian extract was TPP.
Pooled solvent vehicle (ethanol, methanol and pentane—used for EP-2 extraction), avian extract EP-2 and TPP were applied to 4×10^4 A2058 cells in 12 well plates.
To further investigate the effect of EP-2 on cells in general, a ⅕ dilution of avian extract EP-2 was placed on 1×10^4 A2058 melanoma cells and HEK293 non-cancerous human embryonic kidney cells.

## O=P(Oc1ccccc1)(Oc1ccccc1)Oc1ccccc1 [TPP, Triphenyl phosphate]
Example 1, by day 9, 10 ng/mL TPP
  lower growth rate than cells containing control medium: 25%
Example 2
  effect on cell growth: moderate effect
